Data taken from patent US10398692B2, “Terconazole composition and method” (Curatek Pharmaceuticals Holding, Inc., priority 2006, dated 2019).
Values after ≈ are worked out from the molar mass of the structure shown.

Assays:
[1] = Solubility of terconazole in water at adjusted pH (Table 1A); format: physicochemical; settings: for solubility: water
Text: In a related experiment, the solubility of terconazole in water was increased to about 2.9 percent by weight using acetic acid at pH of about 5.

[2] = cited from earlier work

## CC(C)N1CCN(c2ccc(OCC3COC(Cn4cncn4)(c4ccc(Cl)cc4Cl)O3)cc2)CC1 (stereo not drawn) [Terconazole, cis-1-[p[[2-(2,4-dichlorophenyl)-2-(1H-1,2,4-triazol-1-ylmethyl)-1,3-dioxolan-4-yl]methoxy]phenyl]-4-isopropylpiperazine]
[1]; aqueous buffer, pH 4.23 adjusted with HCl
  solubility: 3400 µg/mL (≈ 6.39 mM)
[1]; using acetic acid at pH of about 5
  solubility of terconazole in water: about 2.9 percent by weight
[1]; aqueous buffer, pH 4.99 adjusted with acetic acid
  solubility: 29400 µg/mL (≈ 55.2 mM)
[1]; pH 7.1, pH not adjusted
  solubility: 70 µg/mL (≈ 0.131 mM)
[2]
  solubility in water: about 0.007 percent by weight
